This note sets out measurements from ChEMBL document CHEMBL1157802, “5-Functionalized indazoles as glucocorticoid receptor agonists” (Bioorg Med Chem Lett, 2010).

Activity calls are given as the source filed them. The rule behind the calls is not given here.

For orientation: inhibition means the change of the read-out against control, counted positive when it falls. A word on the EC50: it is the midpoint of the concentration-response curve. The term IC50 denotes the concentration needed to halve the response being measured.

A short description of data set [1]: Inhibition of central benzodiazepine receptor at 1 uM.
The nature of data set [2]: Inhibition of phorbol ester site of PKC at 1 uM.
Data set [3] has as its system Mus musculus. Kind of data set: Antiinflammatory activity in mouse assessed as reduction of LPS-stimulated TNFalpha expression at 30 mg/kg relative to control. The data set is classed as functional, organism-based. Also on record: dose 30 mg/kg.
For data set [4], the target named is Adenosine receptor A2a (Homo sapiens) (UniProt P29274). Kind of data set: Inhibition of adenosine A2A receptor at 1 uM.
Data set [5] can be described thus: Inhibition of nicotinic bungarotoxin-sensitive acetylcholine receptor at 1 uM.
Data set [6] can be described thus: Inhibition of central imidazoline I2 receptor at 1 uM.
Data set [7] in a line: Inhibition of phencyclidine receptor at 1 uM.
For data set [8], the target named is T1, Alpha-2A adrenergic receptor (Homo sapiens) (UniProt P08913).
T1 sequence (whole entry): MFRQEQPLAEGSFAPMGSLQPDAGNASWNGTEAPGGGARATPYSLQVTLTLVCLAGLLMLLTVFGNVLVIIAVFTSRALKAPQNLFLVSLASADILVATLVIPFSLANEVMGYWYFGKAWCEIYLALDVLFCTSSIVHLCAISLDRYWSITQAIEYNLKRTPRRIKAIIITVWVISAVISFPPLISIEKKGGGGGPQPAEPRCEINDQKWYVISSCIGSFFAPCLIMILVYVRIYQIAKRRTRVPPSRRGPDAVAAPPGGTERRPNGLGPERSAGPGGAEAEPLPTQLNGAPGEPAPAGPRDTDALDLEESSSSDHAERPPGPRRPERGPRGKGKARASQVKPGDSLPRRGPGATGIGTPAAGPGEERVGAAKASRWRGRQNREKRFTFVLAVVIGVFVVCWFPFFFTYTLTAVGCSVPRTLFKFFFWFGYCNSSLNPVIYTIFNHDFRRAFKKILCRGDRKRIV
Put plainly: Inhibition of adrenergic alpha2A receptor at 1 uM.

For data set [9], the target named is Beta-2 adrenergic receptor (Homo sapiens) (UniProt P07550). Kind of data set: Inhibition of adrenergic beta2 receptor at 1 uM.
Data set [10] is described as follows: Inhibition of sigma 2 receptor at 1 uM.
For data set [11], the target named is Muscarinic acetylcholine receptor M3 (Homo sapiens) (UniProt P20309). Put plainly: Inhibition of muscarinic M3 receptor at 1 uM.
The target in data set [12] is Sigma non-opioid intracellular receptor 1 (Homo sapiens) (UniProt Q99720). Kind of data set: Inhibition of sigma 1 receptor at 1 uM.
Data set [13] is described as follows: Inhibition of GABAA receptor agonist site at 1 uM. The data set is classed as functional.
For data set [14], the target named is D(1A) dopamine receptor (Homo sapiens) (UniProt P21728). Put plainly: Inhibition of dopamine D1 receptor at 1 uM.
Data set [15] in a line: Inhibition of ATP-sensitive potassium channel at 1 uM.
Data set [16] has as its target Sodium-dependent noradrenaline transporter (Homo sapiens) (UniProt P23975). Kind of data set: Inhibition of norepinephrine transporter at 1 uM.
Data set [17] is described as follows: Selectivity for human glucocorticoid receptor over androgen receptor.
A short description of data set [18]: Inhibition of rolipram binding site at 1 uM.
A short description of data set [19]: Inhibition of NMDA receptor at 1 uM.
Data set [20] in a line: Selectivity for human glucocorticoid receptor over progesterone receptor.
Data set [21] addresses D(2) dopamine receptor (Homo sapiens) (UniProt P14416). Put plainly: Inhibition of dopamine D2S receptor at 1 uM.
In data set [22] the target is T2, Adenosine receptor A1 (Homo sapiens) (UniProt P30542).
T2 sequence (whole entry): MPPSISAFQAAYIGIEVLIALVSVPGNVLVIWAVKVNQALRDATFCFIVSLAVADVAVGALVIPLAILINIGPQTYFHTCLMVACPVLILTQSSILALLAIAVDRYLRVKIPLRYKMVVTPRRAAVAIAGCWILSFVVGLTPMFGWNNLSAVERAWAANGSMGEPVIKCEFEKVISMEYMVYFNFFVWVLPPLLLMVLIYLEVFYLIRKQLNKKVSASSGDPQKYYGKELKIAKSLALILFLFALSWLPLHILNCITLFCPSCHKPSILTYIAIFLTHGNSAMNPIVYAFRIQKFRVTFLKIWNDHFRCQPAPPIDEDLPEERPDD
Kind of data set: Inhibition of adenosine A1 receptor at 1 uM.

Data set [23] concerns the target T3, Alpha-1A adrenergic receptor (Homo sapiens) (UniProt P35348).
T3 sequence (whole entry): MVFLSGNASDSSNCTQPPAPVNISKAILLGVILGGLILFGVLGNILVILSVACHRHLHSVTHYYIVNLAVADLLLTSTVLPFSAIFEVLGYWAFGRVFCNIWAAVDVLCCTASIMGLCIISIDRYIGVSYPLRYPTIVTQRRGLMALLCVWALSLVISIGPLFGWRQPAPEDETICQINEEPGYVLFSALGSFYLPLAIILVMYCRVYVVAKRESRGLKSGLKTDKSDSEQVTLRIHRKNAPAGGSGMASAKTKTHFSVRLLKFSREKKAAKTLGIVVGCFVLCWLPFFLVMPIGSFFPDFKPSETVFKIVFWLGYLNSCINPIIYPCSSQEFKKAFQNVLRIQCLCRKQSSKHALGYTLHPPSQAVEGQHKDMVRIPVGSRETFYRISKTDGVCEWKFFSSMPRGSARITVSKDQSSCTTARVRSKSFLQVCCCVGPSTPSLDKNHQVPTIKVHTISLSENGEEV
Kind of data set: Inhibition of adrenergic alpha1A receptor at 1 uM.

Data set [24] can be described thus: Selectivity for human glucocorticoid receptor over ERbeta.
The target of data set [25] is Prostaglandin E2 receptor EP4 subtype (Homo sapiens) (UniProt P35408). Put plainly: Inhibition of prostanoid EP4 receptor at 1 uM.
A short description of data set [26]: Inhibition of sodium channel site 2 at 1 uM.
Data set [27] has as its target T4, Alpha-1B adrenergic receptor (Homo sapiens) (UniProt P35368).
T4 sequence (whole entry): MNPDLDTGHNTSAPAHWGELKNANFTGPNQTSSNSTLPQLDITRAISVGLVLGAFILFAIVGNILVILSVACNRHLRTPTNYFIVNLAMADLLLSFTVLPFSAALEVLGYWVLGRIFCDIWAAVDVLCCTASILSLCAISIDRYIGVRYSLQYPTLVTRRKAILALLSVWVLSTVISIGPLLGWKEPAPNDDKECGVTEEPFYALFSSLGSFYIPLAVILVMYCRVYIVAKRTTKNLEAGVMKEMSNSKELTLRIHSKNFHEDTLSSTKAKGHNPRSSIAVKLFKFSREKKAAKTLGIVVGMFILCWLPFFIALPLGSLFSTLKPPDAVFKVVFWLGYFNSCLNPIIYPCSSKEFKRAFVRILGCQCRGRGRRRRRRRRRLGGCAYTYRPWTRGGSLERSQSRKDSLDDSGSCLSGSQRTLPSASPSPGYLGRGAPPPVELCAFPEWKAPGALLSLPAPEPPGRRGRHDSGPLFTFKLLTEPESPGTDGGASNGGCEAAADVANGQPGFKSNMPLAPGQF
Kind of data set: Inhibition of adrenergic Alpha-1B receptor at 1 uM.

Data set [28] concerns the target T5, Muscarinic acetylcholine receptor M2 (Homo sapiens) (UniProt P08172).
T5 sequence (whole entry): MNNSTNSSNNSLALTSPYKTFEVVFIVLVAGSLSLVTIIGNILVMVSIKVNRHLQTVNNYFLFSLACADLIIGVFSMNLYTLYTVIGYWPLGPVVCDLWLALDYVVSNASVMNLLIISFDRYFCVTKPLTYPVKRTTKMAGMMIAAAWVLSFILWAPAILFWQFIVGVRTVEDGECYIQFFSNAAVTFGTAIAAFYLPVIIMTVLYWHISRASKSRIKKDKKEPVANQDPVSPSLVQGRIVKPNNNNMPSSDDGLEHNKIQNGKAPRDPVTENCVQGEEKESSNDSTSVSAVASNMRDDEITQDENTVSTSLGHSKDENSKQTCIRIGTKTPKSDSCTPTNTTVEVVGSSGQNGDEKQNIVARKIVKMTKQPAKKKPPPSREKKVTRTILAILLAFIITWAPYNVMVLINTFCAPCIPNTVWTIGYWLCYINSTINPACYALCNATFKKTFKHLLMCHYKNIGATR
Put plainly: Inhibition of muscarinic M2 receptor at 1 uM.

Data set [29] concerns the target Histamine H1 receptor (Homo sapiens) (UniProt P35367). Kind of data set: Inhibition of histamine H1 receptor at 1 uM.
Data set [30] has as its target Mu-type opioid receptor (Homo sapiens) (UniProt P35372). Put plainly: Inhibition of mu opioid receptor at 1 uM.
A short description of data set [31]: Selectivity for human glucocorticoid receptor over ERalpha.
Data set [32] deals with Beta-1 adrenergic receptor (Homo sapiens) (UniProt P08588). Put plainly: Inhibition of adrenergic beta-1 receptor at 1 uM.
Data set [33] can be described thus: Inhibition of calcium channel L type dihydropyridine binding site at 1 uM.
Data set [34] can be described thus: Inhibition of nicotinic acetylcholine receptor at 1 uM.
For data set [35], the target named is T6, Glucocorticoid receptor (Homo sapiens, UniProt P04150).
T6 sequence (P04150 whole entry): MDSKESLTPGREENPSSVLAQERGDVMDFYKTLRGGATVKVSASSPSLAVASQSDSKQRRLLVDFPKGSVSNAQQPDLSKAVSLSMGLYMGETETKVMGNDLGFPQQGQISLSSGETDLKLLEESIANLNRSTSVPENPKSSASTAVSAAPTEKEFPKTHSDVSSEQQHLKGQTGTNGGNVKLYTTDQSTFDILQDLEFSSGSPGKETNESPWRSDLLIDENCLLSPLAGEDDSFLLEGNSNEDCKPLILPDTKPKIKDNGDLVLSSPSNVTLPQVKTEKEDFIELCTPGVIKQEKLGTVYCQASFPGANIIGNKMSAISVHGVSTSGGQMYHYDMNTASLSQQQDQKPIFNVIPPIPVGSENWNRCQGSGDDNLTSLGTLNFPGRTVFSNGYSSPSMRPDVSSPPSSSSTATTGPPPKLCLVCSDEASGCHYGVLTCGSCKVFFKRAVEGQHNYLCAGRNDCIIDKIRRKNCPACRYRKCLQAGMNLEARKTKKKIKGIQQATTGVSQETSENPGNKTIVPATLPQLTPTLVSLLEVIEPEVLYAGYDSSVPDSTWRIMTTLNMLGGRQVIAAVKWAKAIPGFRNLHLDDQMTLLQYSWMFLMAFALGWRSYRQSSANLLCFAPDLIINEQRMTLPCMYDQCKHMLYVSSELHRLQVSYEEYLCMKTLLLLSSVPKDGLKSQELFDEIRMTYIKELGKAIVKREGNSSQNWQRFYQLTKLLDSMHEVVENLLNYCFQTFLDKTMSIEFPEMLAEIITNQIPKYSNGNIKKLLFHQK
Put plainly: Agonist activity at glucocorticoid receptor in human MDA-kb2 cells transfected with MMTV-LUC assessed as induction of MMTV-LTR/promoter linked LUC gene by luciferase transactivation assay. The data set is classed as functional, cell-based. Particulars: read-out: EC50.

Data set [36] has as its target T6, Glucocorticoid receptor. Put plainly: Agonist activity at glucocorticoid receptor in human fibroblast assessed as inhibition of IL-1-beta-induced IL6 production treated 1 hr before IL1-beta challenge measured after 24 hrs by transrepression assay. The data set is classed as functional.
Data set [37] has as its system Mus musculus. Put plainly: Antiinflammatory activity in mouse assessed as reduction of LPS-stimulated TNFalpha expression at 60 mg/kg relative to control. The data set is classed as functional. Also on record: scale not given: the % may be the effect or the level left.
The target of data set [38] is T6, Glucocorticoid receptor.
Description: Binding affinity to human glucocorticoid receptor by fluorescence polarization competitive binding assay
The target in data set [39] is Voltage-gated inwardly rectifying potassium channel KCNH2 (Homo sapiens, UniProt Q12809). Put plainly: Inhibition of human ERG by patch clamp method. Background: The patch-clamp technique gives a direct electrical read-out from membranes.
The subject of data set [40] is Mus musculus. Put plainly: Antiinflammatory activity in mouse assessed as reduction of LPS-stimulated TNFalpha expression at 3 mg/kg relative to control. The data set is classed as functional. More on the design: scale not given: the % may be the effect or the level left.
Another data set deals with hERG (KCNH2) (Homo sapiens, UniProt Q12809). Kind of data set: Inhibition of human ERG at 1 uM.
Data set [41] relates to Mus musculus. Kind of data set: Antiinflammatory activity in mouse assessed as reduction of LPS-stimulated TNFalpha expression at 6 mg/kg relative to control. Also on record: scale not given: the % may be the effect or the level left. The data set is classed as functional.

D(2) dopamine receptor (Homo sapiens), sequence (P14416 whole entry): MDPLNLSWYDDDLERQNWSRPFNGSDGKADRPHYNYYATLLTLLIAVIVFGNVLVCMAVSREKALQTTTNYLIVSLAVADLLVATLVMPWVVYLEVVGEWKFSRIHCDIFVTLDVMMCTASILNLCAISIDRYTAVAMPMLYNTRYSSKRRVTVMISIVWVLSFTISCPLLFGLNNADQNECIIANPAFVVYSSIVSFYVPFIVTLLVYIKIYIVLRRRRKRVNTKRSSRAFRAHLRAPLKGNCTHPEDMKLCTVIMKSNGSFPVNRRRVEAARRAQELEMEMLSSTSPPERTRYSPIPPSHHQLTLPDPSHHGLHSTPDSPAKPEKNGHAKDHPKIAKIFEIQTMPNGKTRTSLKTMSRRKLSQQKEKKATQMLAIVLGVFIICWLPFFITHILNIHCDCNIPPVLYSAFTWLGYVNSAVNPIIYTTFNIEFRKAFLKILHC
Sigma non-opioid intracellular receptor 1 (Homo sapiens), sequence (Q99720 whole entry): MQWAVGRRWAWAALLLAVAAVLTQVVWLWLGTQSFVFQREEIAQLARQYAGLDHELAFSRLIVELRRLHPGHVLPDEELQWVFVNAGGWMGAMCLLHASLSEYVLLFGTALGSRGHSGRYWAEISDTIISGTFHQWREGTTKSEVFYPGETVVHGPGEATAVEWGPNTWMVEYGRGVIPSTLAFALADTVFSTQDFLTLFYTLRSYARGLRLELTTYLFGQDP
Histamine H1 receptor (Homo sapiens), sequence (P35367 whole entry): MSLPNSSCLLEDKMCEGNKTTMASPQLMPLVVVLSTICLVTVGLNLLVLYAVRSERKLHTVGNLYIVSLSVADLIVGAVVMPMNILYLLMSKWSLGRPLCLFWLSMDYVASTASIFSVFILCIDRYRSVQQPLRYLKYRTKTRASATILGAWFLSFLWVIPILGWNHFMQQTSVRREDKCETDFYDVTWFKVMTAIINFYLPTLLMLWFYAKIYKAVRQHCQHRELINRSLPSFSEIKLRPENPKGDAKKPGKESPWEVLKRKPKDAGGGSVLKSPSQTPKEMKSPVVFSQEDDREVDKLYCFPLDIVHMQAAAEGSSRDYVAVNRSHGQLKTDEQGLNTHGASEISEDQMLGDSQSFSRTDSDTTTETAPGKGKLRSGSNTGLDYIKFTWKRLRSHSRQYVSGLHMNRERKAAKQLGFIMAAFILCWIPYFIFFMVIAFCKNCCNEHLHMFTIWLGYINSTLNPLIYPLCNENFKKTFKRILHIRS
Beta-2 adrenergic receptor (Homo sapiens), sequence (P07550 whole entry, looked up): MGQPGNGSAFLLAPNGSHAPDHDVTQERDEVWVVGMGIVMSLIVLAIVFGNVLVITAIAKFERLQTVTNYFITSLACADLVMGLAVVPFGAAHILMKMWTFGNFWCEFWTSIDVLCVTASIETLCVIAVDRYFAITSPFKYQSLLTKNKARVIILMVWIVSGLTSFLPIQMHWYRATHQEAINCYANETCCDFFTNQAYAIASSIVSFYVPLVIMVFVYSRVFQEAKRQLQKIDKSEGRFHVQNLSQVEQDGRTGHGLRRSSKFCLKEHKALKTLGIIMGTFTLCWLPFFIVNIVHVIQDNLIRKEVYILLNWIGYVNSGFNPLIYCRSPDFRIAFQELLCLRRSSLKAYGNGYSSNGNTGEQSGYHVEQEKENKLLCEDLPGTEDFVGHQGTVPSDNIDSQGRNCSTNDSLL
Adenosine receptor A2a (Homo sapiens), sequence (P29274 whole entry): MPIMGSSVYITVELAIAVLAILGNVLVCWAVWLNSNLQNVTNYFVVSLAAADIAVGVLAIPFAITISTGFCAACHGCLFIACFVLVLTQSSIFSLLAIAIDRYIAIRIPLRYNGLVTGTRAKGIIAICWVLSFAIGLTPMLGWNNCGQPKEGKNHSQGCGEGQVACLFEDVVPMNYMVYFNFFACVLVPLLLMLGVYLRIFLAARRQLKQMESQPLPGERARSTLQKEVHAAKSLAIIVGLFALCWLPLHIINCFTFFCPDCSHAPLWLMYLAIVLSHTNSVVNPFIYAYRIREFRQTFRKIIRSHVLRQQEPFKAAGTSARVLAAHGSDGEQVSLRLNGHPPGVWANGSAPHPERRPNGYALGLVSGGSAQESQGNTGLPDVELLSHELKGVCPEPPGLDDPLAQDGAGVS
Prostaglandin E2 receptor EP4 subtype (Homo sapiens), sequence (P35408 whole entry): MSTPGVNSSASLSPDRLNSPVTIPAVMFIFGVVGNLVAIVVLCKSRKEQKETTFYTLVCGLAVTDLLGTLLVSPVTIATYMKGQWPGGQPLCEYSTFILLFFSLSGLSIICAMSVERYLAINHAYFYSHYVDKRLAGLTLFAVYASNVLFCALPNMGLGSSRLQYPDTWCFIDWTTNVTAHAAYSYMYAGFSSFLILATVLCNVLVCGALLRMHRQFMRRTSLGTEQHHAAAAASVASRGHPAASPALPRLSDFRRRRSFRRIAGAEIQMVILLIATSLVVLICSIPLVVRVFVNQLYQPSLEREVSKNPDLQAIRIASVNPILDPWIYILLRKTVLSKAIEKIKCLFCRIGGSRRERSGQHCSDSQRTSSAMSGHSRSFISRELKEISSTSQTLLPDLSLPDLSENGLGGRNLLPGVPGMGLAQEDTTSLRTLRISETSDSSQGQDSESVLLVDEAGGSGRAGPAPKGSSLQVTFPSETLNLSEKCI
Sodium-dependent noradrenaline transporter (Homo sapiens), sequence (P23975 whole entry): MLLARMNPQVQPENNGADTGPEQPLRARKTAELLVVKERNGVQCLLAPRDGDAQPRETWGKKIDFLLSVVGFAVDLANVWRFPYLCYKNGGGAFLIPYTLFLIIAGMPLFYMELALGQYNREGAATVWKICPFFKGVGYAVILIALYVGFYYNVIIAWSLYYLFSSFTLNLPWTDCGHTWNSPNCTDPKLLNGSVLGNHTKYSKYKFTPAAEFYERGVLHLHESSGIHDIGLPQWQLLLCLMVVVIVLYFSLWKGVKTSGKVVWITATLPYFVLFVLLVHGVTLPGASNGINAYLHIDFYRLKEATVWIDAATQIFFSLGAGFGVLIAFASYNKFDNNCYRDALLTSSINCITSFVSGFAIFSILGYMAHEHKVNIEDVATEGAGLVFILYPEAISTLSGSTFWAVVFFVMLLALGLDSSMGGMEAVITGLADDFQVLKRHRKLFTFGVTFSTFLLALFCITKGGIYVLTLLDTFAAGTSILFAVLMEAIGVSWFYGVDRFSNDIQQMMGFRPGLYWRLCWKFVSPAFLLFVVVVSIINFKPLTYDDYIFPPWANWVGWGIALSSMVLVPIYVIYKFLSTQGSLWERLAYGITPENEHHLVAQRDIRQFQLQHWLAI
Mu-type opioid receptor (Homo sapiens), sequence (P35372 whole entry): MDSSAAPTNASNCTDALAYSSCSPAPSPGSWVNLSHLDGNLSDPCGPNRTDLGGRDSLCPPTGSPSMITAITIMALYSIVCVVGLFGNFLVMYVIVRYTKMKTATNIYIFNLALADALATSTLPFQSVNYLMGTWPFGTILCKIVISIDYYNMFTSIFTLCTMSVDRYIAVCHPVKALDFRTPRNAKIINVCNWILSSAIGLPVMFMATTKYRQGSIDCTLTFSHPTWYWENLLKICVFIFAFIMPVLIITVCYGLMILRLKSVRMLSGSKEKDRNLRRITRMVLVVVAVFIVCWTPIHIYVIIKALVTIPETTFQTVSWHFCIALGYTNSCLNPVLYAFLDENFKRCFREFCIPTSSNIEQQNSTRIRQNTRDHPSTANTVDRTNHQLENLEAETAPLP
Beta-1 adrenergic receptor (Homo sapiens), sequence (P08588 whole entry, looked up): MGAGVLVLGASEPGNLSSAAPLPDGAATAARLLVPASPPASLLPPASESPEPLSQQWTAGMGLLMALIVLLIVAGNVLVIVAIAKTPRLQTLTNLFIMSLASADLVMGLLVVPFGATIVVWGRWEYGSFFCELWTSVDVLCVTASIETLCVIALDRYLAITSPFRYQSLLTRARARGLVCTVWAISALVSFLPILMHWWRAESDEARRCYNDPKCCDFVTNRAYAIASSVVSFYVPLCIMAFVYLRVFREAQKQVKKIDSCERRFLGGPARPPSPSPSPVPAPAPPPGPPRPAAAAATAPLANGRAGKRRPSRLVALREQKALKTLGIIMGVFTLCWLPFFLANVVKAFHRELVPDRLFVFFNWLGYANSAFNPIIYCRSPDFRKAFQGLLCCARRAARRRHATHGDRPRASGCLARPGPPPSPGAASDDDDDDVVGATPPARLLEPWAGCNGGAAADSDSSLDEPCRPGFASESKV
D(1A) dopamine receptor (Homo sapiens), sequence (P21728 whole entry): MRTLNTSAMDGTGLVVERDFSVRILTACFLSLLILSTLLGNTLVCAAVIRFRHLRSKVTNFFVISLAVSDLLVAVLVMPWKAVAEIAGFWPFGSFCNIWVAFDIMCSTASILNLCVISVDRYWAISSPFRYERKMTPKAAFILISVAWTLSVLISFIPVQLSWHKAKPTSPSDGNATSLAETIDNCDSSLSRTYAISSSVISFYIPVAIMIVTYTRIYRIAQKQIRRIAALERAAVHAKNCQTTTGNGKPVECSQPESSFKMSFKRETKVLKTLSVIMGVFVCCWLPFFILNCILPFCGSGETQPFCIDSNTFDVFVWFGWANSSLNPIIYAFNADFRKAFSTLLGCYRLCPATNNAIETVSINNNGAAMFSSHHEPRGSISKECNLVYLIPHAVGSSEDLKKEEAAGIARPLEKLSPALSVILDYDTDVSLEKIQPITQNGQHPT

As for `OC(c1ccc2c(cnn2-c2ccc(F)cc2)c1)(c1cccc(Cl)c1Cl)C(F)(F)F` (single isomer, unassigned; (+)), the inhibition in [1], in data set [2], in data set [4], in data set [5], in data set [6] and in data set [7] was less than 50% in each case. The inhibition in data set [8], in data set [9], in data set [10], in data set [11], in [12] and in data set [13] was less than 50% in each case. Besides, the inhibition in data set [14], in data set [15], in data set [16], in data set [18], in [19] and in data set [21] was less than 50% throughout. The inhibition in data set [22], in data set [23], in [25], in [26], in data set [27] and in data set [28] was less than 50% throughout. The inhibition in data set [29], in [30], in data set [32], in [33] and in data set [34] was less than 50% throughout. Also, the result with Mus musculus [3] was Active. For the same compound, the Ratio in data set [17], in [20], in data set [24] and in data set [31] was greater than 1000 in each case.
Turning to `OC(c1ccc2c(cnn2-c2ccc(F)cc2)c1)(c1cccc(Cl)c1Cl)C(F)(F)F` (single isomer, unassigned; (+)) [1-(2,3-DICHLOROPHENYL)-2,2,2-TRIFLUORO-1-(1-(4-FLUOROPHENYL)-1H-INDAZOL-5-YL)ETHANOL (ENANTIOMERIC MIX)], the EC50 at Glucocorticoid receptor [35] was 350 nM; at Glucocorticoid receptor [36], 19 nM. Also, the Activity in the data set with Mus musculus [37] came to 68%; in the data set with Mus musculus [40] it was 25%; with Mus musculus [41] it was 50%. Further, the IC50 at Glucocorticoid receptor [38] was 34 nM; in data set [39], greater than 10000 nM. Further, the inhibition at 1 µM at hERG (KCNH2) is less than 50%.
